Measured values reported in patent US12448382B2, “Heterocyclic compounds for mediating tyrosine kinase 2 activity” (GUANGZHOU INNOCARE PHARMA TECH CO., LTD., priority 2019, dated 2025).
Read-outs that look alike come from different tables or passages of the source.

Legend:
[1] = molecular target: T1, human recombinant JAK2 protein (Homo sapiens, UniProt O60674); experiment: JAK2 Inhibition Assay (HTRF kinase assay); assay type: biochemical; conditions: human recombinant JAK2, 2.5 μM ATP substrate solution
T1 construct: purchased Carna Biosciences 08-045
In short: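 Recombinant human JAK2 was preincubated 15 min at room temperature with compound in buffer containing 5 mM MgCl2, 1 mM DTT and 0.01% Brij35. Substrate solution (2.5 μM ATP, 0.25 μM biotinylated TK substrate) was then added for 30 min. Phosphorylation was detected by HTRF (665/620 nm ratio; no-enzyme = 100% inhibition), and IC50 was fitted from an 8-point, 4-fold series.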

[2] = system: IL-12-induced IFN-γ secretion in NK92 cells; experiment: Inhibition of IL-12-induced IFN-γ Secretion in NK92 Cells (ELISA); assay type: cell-based, human; conditions: 24 hours incubation, 8 concentration points, read-out: IC50 (NK92_IL12/IFNγ)
In short: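 NK92 cells (100,000/well, IL-2-free medium) rested overnight, then treated with compound plus IL-12 for 24 h at 37 °C. Secreted IFN-γ measured in supernatant by ELISA. Inhibition normalized to unstimulated and IL-12/0.2% DMSO controls; IC50 fitted from 8 concentrations.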

[3] = molecular target: T2, human recombinant TYK2 protein (Homo sapiens, UniProt P29597); experiment: TYK2 Inhibition Assay (HTRF kinase assay); assay type: biochemical; conditions: human recombinant TYK2, 11.25 μM ATP substrate solution
T2 construct: purchased Carna Biosciences 08-147
T2 sequence (P29597 871-1187 limits assumed): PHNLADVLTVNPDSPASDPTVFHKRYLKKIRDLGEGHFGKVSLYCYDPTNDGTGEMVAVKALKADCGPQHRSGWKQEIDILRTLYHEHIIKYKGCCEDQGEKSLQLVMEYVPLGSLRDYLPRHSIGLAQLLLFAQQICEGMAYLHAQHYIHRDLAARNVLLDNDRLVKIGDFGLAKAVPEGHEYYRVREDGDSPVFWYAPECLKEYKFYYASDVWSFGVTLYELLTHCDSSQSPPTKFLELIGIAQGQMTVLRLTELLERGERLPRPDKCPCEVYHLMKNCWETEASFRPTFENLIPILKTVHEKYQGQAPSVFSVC
In short: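 Recombinant human TYK2 was pre-incubated 15 min at room temperature with compound, then reacted for 40 min with biotinylated tyrosine-kinase substrate and ATP (substrate solution 11.25 μM ATP, 0.5 μM substrate; 5 mM MgCl2, 0.01% Brij35). Phosphorylation was read by HTRF 665/620 ratio, normalised to no-enzyme and no-compound controls, and IC50 was fitted from 8 4-fold dilutions.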

T1 sequence (O60674 826-1132 limits assumed): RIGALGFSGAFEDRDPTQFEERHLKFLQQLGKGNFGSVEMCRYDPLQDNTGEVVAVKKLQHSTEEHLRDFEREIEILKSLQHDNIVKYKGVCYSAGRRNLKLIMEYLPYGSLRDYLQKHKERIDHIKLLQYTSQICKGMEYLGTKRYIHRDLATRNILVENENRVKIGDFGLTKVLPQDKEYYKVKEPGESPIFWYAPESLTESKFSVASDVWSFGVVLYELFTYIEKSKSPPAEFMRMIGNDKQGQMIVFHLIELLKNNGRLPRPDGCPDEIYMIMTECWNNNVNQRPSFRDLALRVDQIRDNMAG

| IC50 [1] | IC50 ([2]; Homo sapiens) | IC50 [3] | IC50 [2] | Molecule |
| --- | --- | --- | --- | --- |
| 5.1 nM | 2390 nM | 5 nM | – | CN1CCN(C(=O)c2ccc(Nc3ncc(Cl)c(N4C[C@]5(C)CN(C(=O)C6CC6)C[C@]5(C)C4)n3)cn2)CC1 [Compound 59, ((3aR,6aS)-5-(5-chloro-2-((6-(4-rnethylpiperazine-1-carbonyl)pyridin-3-yl)amino)pyrimidin-4-yl)-3a,6a-dimethylhexahydropyrrolo[3,4-c]pyrrol-2(1H)-yl)(cyclopropyl)methanone] |
| 19 nM | 5850 nM | 42 nM | – | C[C@@]12CN(C(=O)C3CC3)C[C@]1(C)CN(c1nc(Nc3cc[nH]n3)ncc1Cl)C2 [Compound 95, ((3aR,6aS)-5-(2-((1H-pyrazol-3-yl)amino)-5-chloropyrimidin-4-yl)-3a,6a-dimethylhexahydropyrrolo-[3,4-c]pyrrol-2(1H)-yl)(cyclopropyl)methanone] |
| 1.7 nM | 5350 nM | 2.4 nM | – | Cn1cc(Nc2ncc(Cl)c(N3C[C@]4(C)CN(CC#N)C[C@]4(C)C3)n2)cn1 [Compound 85, 2-((3aR,6aS)-5-(5-chloro-2-((1-methyl-1H-pyrazol-4-yl)amino)pyrimidin-4-yl)-3a,6a-dimethylhexahydropyrrolo[3,4-c]pyrrol-2(1H)-yl)acetonitrile] |
| 4.2 nM | 419 nM | 1.1 nM | – | Cn1cc(Nc2ncc(Cl)c(N3C[C@]4(C)CN(C(=O)C5CC5)C[C@]4(C)C3)n2)cn1 [Compound 12, ((3aR,6aS)-5-(5-chloro-2-((1-methyl-1H-pyrazol-4-yl)amino)pyrimidin-4-yl)-3a,6a-dimethylhexahydropyrrolo[3,4-c]pyrrol-2(1H)-yl)(cyclopropyl)methanone] |
| 1 nM | 668 nM | 0.5 nM | – | C[C@@]12CN(C(=O)C3CC3)C[C@]1(C)CN(c1nc(Nc3cnn(CCO)c3)ncc1Cl)C2 [Compound 32] |
| 10 nM | 652 nM | 6.1 nM | – | Cn1cc(Nc2ncc(Cl)c(N3C[C@H]4CN(C(=O)CC#N)C[C@H]4C3)n2)cn1 [Compound 26, 3-((3aR,6aS)-5-(5-chloro-2-((1-methyl-H-pyrazol-4-yl)amino)pyrimidin-4-yl)hexahydropyrrolo[3,4-c]pyrrol-2(1H)-yl)-3-oxopropanenitrile] |
| 16 nM | 4090 nM | 19 nM | – | Cc1ncc(CN2C[C@@]3(C)CN(c4nc(Nc5cnn(C)c5)ncc4Cl)C[C@@]3(C)C2)o1 [Compound 80, 5-chloro-4-((3aR,6aS)-3a,6a-dimethyl-5-((2-methyloxazol-5-yl)methyl)hexahydropyrrolo[3,4-c]pyrrol-2(1H)-yl)-N-(1-methyl-1H-pyrazol-4-yl)pyrimidin-2-amine] |
| 51 nM | 7920 nM | 13 nM | – | Cn1cc(Nc2ncc(Cl)c(N3C[C@]4(C)CN(C(=O)c5ccccn5)C[C@]4(C)C3)n2)cn1 [Compound 47, ((3aR,6aS)-5-(5-chloro-2-((1-methyl-1H-pyrazol-4-yl)amino)pyrimidin-4-yl)-3a,6a-dimethylhexahydropyrrolo[3,4-c]pyrrol-2(1H)-yl)(pyridin-2-yl)methanone] |
| 3.3 nM | 162 nM | 0.5 nM | – | Cn1cc(Nc2ncc(Cl)c(N3C[C@@H]4CN(C(=O)c5ccno5)C[C@]4(C)C3)n2)cn1 (racemic) [Compound 64, cis-(5-(5-chloro-2-((1-methyl-1H-pyrazol-4-yl)amino)pyrimidin-4-yl)-3a-methylhexahydropyrrolo[3,4-c]pyrrol-2(1H)-yl)(isoxazol-5-yl)methanone] |
| 0.9 nM | 399 nM | 0.3 nM | – | Cn1cc(Nc2ncc(Cl)c(N3C[C@]4(C)CN(c5ccncn5)C[C@]4(C)C3)n2)cn1 [Compound 25, 5-chloro-4-((3aR,6aS)-3a,6a-dimethyl-5-(pyrimidin-4-yl)hexahydropyrrolo[3,4-c]pyrrol-2(1H)-yl)-N-(1-methyl-1H-pyrazol-4-yl)pyrimidin-2-amine] |
| 3.2 nM | – | 2.3 nM | 5240 nM | 3-((3aR,6aS)-3a,6a-dimethyl-5-5-methyl-2-((1-methyl-1H-pyrazol-4-yl)amino)pyrimidin-4-yl)hexahydropyrrolo[3,4-c]pyrrol-2(1H)-yl)-3-oxopropanenitrile [Compound 57] |
| 3.8 nM | 918 nM | 3.2 nM | – | C[C@@]12CN(C(=O)C3CC3)C[C@]1(C)CN(c1nc(Nc3ccc(C(=O)N4CCOCC4)nc3)ncc1Cl)C2 [Compound 53, ((3aR,6aS)-5-(5-chloro-2-((6-(morpholine-4-carbonyl)pyridin-3-yl)amino)pyrimidin-4-yl)-3a,6a-dimethylhexahydropyrrolo[3,4-c]pyrrol-2(1H)-yl)(cyclopropyl)methanone] |
| 20 nM | 3620 nM | 8.6 nM | – | Cn1cc(Nc2ncc(Cl)c(N3C[C@]4(C)CN(C(=O)C(C)(C)O)C[C@]4(C)C3)n2)cn1 [Compound 44, 1-((3aR,6aS)-5-(5-chloro-2((1-methyl-1H-pyrazol-4-yl)amino)pyrimidin-4-yl)-3a,6a-dimethylhexahydropyrrolo[3,4-c]pyrrol-2(1H)-yl)-2-hydroxy-2-methylpropan-1-one] |
| 4.5 nM | 729 nM | 2.6 nM | – | Cn1cc(Nc2ncc(Cl)c(N3C[C@H]4CN(C(=O)CC#N)C[C@@]4(C)C3)n2)cn1 [Compound 89, 3-((3aR,6aS)-5-(5-chloro-2-((1-methyl-1H-pyrazol-4-yl)amino)pyrimidin-4-yl)-3a-methylhexahydropyrrolo[3,4-c]pyrrol-2(1H)-yl)-3-oxopropanenitrile] |
| 8.8 nM | 713 nM | 14 nM | – | CC(=O)N1C[C@@]2(C)CN(c3nc(Nc4cnn(C)c4)ncc3Cl)C[C@@]2(C)C1 [Compound 19, 1-((3aR,6aS)-5-(5-chloro-2-((1-methyl-1H-pyrazol-4-yl)amino)pyrimidin-4-yl)-3a,6a-dimethylhexahydropyrrolo[3,4-c]pyrrol-2(1H)-yl)ethan-1-one] |
| 0.7 nM | 516 nM | 0.1 nM | – | C[C@]12CN(C(=O)CC#N)C[C@H]1CN(c1nc(Nc3cn[nH]c3)ncc1Cl)C2 [Compound 98, 3-((3aS,6aR)-5-(2-((1H-pyrazol-4-yl)amino)-5-chloropyrimidin-4-yl)-3a-methylhexahydropyrrolo[3,4-c]pyrrol-2(1H)-yl)-3-oxopropanenitrile] |
| 0.5 nM | 380 nM | 0.4 nM | – | C[C@@]12CN(C(=O)[C@@H]3CC3(F)F)C[C@]1(C)CN(c1nc(Nc3cn[nH]c3)ncc1Cl)C2 [Compound 29, ((3aR,6aS)-5-(2((1H-pyrazol-4-yl)amino)-5-chloropyrimidin-4-yl)-3a,6a-dimethylhexahydropyrrolo[3,4-c]pyrrol-2(1H)-yl)((S)-2,2-difluorocyclopropyl)methanone] |
| 2.5 nM | 709 nM | 0.7 nM | – | Cn1cc(Nc2ncc(Cl)c(N3C[C@]4(C)CN(C(=O)CC(F)(F)F)C[C@]4(C)C3)n2)cn1 [Compound 48, 1-((3aR,6aS)-5-(5-chloro-2-((1-methyl-1H-pyrazol-4-yl)amino)pyrimidin-4-yl)-3a,6a-dimethylhexahydropyrrolo[3,4-c]pyrrol-2(1H)-yl)-3,3,3-trifluoropropan-1-one] |
| 0.9 nM | 934 nM | 0.2 nM | – | Cn1cc(Nc2ncc(Cl)c(N3C[C@]4(C)CN(c5ccccn5)C[C@]4(C)C3)n2)cn1 [Compound 54, 5-chloro-4-((3aR,6aS)-3a,6a-dimethyl-5-(pyridin-2-yl)hexahydropyrrolo[3,4-c]pyrrol-2(1H)-yl)-N-(1-methyl-1H-pyrazol-4-yl)pyrimidin-2-amine] |
